For data set [1] the following is noted: cited from earlier work.
A short description of data set [2]: Physical storage stability of aqueous Ifosfamide concentrates with Mesna as solubility-enhancing agent. Particulars: Mesna as solubility-enhancing agent in Ifosfamide concentrates. The data set is classed as physicochemical. The procedure: The ratios refer to the proportions by weight of the substances in the solution. The solutions are homogenized, sterilized by filtration and filled under aseptic conditions. Production is carried out under nitrogen. These solutions can also be lyophilized in order to obtain a longer storage life of the pharmaceutical preparation. In addition to the auxiliary agents that are set forth in the examples, the solution can contain also further substances, e.g. sodium chloride, Mannitol, lactose, polyethylenglycol, ethanol, glucose, disaccharide, cyclodextrine.
In the manufacture, 90% of the Water for Injection is cooled to about 5° C. to 10° C., to which is dissolved the phosphate buffer; the Mesna is subsequently added and is homogeneously dissolved. […] The solution so obtained is brought to the specified weight with the cooled Water for Injection, sterile-filtered and filled in injection vials under aseptic conditions. Sterilization and filling are not carried out under cooling.
The making of Examples 4, 5 and 6 is carried out analogously to the description of Example 1.

`O=P1(NCCCl)OCCCN1CCCl` (stereo not drawn) [Ifosfamide, 2-(chlorethylamino)-3-(2-chlorethyl)-tetrahydro-2H-1,3,2-oxazaphosphorin-2-oxide]: the “solubility in water (saturation concentration)” value in data set [1] (water, room temperature) is recorded as “about 140 mg/mL”. In addition, the “solubility of Ifosfamide lowered by addition of auxiliary agents” value in data set [1] (with auxiliary agents added) is given as “under 10 % (wt/vol)”. For `O=S(=O)(O)CCS` [Mesna, mercaptoethane sulfonate-sodium], the “physical stabilization of Ifosfamide solution” value in data set [2] is “prevents crystallization”.

These data come from patent US20050124589A1, “New use, pharmaceutical preparations as well as a process for their production” (priority 2003, published 2005).
